From ChEMBL document CHEMBL3045495, “Lipophilic 2-(4-chlorophenyl)-4-thiazolyl-1,4-dihydropyridines: synthesis, calcium channel antagonist activity, and protection against pentylenetetrazole-induced seizure” (Med Chem Res, 2009)

Columns and labels:
Mus musculus [1] = test: Anticonvulsant activity against pentylenetetrazole-induced seizures in Mus musculus NMRI (mouse) assessed as time of maximal effect at 20 mg/kg, ip administered 30 min before PTZ challenge; format: functional; conditions: route intraperitoneal
Mus musculus [2] = test: Anticonvulsant activity against pentylenetetrazole-induced seizures in Mus musculus NMRI (mouse) assessed as time of maximal effect at 10 mg/kg, ip administered 30 min before PTZ challenge (reference value: 24.86 +/- 0.96 min); format: functional; conditions: route intraperitoneal
[3] = target: Voltage-dependent L-type calcium channel subunit alpha-1C (Cavia porcellus, UniProt O35505); test: Antagonist activity at Calcium channel in Cavia porcellus (guinea pig) ileal smooth muscle assessed as inhibition of 40 mM KCl-induced contraction compound pretreated for 15 min before KCl treatment
Mus musculus [4] = test: Anticonvulsant activity against pentylenetetrazole-induced seizures in Mus musculus NMRI (mouse) assessed as time of maximal effect at 5 mg/kg, ip administered 30 min before PTZ challenge; format: functional; conditions: route intraperitoneal
Mus musculus [5] = test: Anticonvulsant activity against pentylenetetrazole-induced seizures in Mus musculus NMRI (mouse) assessed as time of maximal effect at 5 mg/kg, ip administered 15 min before PTZ challenge; format: functional; conditions: route intraperitoneal
Mus musculus [6] = test: Anticonvulsant activity against pentylenetetrazole-induced seizures in Mus musculus NMRI (mouse) assessed as time of maximal effect at 20 mg/kg, ip administered 15 min before PTZ challenge; format: functional; conditions: route intraperitoneal
Mus musculus [7] = test: Anticonvulsant activity against pentylenetetrazole-induced seizures in Mus musculus NMRI (mouse) assessed as time of maximal effect at 10 mg/kg, ip administered 15 min before PTZ challenge (reference value: 24.86 +/- 0.96 min); format: functional; conditions: route intraperitoneal
Mus musculus [8] = test: Anticonvulsant activity against pentylenetetrazole-induced seizures in Mus musculus NMRI (mouse) assessed as time of maximal effect at 60 mg/kg, ip administered 15 min before PTZ challenge (reference value: 24.86 +/- 0.96 min); format: functional; conditions: route intraperitoneal
Mus musculus [9] = test: Anticonvulsant activity against pentylenetetrazole-induced seizures in Mus musculus NMRI (mouse) assessed as time of maximal effect at 20 mg/kg, ip administered 60 min before PTZ challenge; format: functional; conditions: route intraperitoneal
Mus musculus [10] = test: Anticonvulsant activity against pentylenetetrazole-induced seizures in Mus musculus NMRI (mouse) assessed as time of maximal effect at 5 mg/kg, ip administered 60 min before PTZ challenge; format: functional; conditions: route intraperitoneal

Voltage-dependent L-type calcium channel subunit alpha-1C, sequence (O35505 whole entry): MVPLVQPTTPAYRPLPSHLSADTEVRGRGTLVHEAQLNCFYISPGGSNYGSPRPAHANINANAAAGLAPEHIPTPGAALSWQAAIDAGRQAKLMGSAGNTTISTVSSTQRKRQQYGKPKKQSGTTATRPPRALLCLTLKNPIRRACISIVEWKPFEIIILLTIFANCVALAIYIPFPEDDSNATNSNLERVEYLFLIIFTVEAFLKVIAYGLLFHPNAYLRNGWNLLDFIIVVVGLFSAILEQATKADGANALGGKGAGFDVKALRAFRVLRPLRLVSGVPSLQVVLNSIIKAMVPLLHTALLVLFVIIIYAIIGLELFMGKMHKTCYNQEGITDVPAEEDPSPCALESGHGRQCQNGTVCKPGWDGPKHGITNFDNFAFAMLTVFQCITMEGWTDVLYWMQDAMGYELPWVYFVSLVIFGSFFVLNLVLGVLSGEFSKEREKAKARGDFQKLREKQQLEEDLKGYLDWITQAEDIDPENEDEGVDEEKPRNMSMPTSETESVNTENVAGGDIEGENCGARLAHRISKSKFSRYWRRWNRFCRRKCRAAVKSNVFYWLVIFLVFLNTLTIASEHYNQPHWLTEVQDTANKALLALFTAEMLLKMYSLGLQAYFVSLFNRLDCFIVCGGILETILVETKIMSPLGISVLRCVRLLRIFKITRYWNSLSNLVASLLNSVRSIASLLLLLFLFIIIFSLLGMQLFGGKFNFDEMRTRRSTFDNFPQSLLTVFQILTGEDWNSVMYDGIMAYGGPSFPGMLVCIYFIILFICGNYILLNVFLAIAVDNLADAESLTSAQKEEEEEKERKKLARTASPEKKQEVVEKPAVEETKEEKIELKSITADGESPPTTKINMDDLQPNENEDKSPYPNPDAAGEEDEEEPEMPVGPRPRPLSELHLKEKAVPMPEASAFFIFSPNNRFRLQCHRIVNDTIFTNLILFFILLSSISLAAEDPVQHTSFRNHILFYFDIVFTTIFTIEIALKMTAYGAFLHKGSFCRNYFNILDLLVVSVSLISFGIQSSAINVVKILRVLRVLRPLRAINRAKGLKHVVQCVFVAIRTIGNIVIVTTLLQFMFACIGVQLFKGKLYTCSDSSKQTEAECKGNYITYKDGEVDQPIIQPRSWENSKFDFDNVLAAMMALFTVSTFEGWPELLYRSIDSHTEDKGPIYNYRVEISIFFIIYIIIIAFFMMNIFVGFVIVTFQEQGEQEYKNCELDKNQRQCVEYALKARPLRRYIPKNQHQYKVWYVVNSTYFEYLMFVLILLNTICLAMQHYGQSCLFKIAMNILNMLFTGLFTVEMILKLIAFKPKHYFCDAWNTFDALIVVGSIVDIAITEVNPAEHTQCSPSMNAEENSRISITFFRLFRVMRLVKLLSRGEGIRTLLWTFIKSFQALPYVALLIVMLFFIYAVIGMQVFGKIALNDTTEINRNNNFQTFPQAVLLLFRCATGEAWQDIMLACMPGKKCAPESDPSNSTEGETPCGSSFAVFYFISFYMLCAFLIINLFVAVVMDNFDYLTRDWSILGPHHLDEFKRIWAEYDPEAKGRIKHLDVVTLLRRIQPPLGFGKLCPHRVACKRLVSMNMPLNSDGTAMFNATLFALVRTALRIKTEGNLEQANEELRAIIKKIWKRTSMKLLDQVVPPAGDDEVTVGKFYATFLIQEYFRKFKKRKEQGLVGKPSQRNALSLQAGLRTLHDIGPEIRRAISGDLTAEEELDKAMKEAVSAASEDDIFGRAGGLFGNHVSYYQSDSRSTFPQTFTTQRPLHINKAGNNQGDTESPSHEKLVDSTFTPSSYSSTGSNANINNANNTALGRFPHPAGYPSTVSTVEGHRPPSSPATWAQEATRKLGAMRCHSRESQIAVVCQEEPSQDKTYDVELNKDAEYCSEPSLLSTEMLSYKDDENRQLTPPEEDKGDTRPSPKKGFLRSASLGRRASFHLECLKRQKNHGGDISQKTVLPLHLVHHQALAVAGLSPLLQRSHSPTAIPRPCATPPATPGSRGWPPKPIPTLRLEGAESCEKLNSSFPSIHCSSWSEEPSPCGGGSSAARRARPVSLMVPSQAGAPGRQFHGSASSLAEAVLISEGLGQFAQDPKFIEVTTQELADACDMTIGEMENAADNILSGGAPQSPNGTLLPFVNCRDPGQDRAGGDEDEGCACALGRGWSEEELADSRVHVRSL

Compound	IC50 [3] [µM]	Time (Mus musculus [1]) [min]	Time (Mus musculus [2]) [min]	Time (Mus musculus [4]) [min]	further results
COC(=O)C1=C(C)NC(C)=C(C(=O)OC)C1c1csc(-c2ccc(Cl)cc2)n1	4.43	44.3	40.94	39.05	
CCOC(=O)C1=C(C)NC(C)=C(C(=O)OCC)C1c1csc(-c2ccc(Cl)cc2)n1	3.65	39.07	32.64	27.76	
CC1=C(C(=O)OCC(C)C)C(c2csc(-c3ccc(Cl)cc3)n2)C(C(=O)OCC(C)C)=C(C)N1	24.9	47.62	39.32	37.5	
CC1=C(C(=O)OC(C)(C)C)C(c2csc(-c3ccc(Cl)cc3)n2)C(C(=O)OC(C)(C)C)=C(C)N1	21				
CC1=C(C(=O)OC2CCCC2)C(c2csc(-c3ccc(Cl)cc3)n2)C(C(=O)OC2CCCC2)=C(C)N1	19				
CC1=C(C(=O)OC2CCCCC2)C(c2csc(-c3ccc(Cl)cc3)n2)C(C(=O)OC2CCCCC2)=C(C)N1	11				Time (Mus musculus [5]): 35.65 min; Time (Mus musculus [6]): 37.86 min; Time (Mus musculus [7]): 35.59 min
CC1=C(C(=O)OCc2ccccc2)C(c2csc(-c3ccc(Cl)cc3)n2)C(C(=O)OCc2ccccc2)=C(C)N1	11				
CC1=C(C(=O)OCCc2ccccc2)C(c2csc(-c3ccc(Cl)cc3)n2)C(C(=O)OCCc2ccccc2)=C(C)N1	500				
CC1=C(C(=O)OC(C)c2ccccc2)C(c2csc(-c3ccc(Cl)cc3)n2)C(C(=O)OC(C)c2ccccc2)=C(C)N1 (centres undefined)	400				
CCOC(=O)C1=C(C)NC(C)=C(C(=O)OC)C1c1csc(-c2ccc(Cl)cc2)n1 (centres undefined)	22				
COC(=O)C1=C(C)NC(C)=C(C(=O)OC(C)C)C1c1csc(-c2ccc(Cl)cc2)n1 (centres undefined)	13.6				
CCOC(=O)C1=C(C)NC(C)=C(C(=O)OC(C)C)C1c1csc(-c2ccc(Cl)cc2)n1 (centres undefined)	2.55	44.64	35.87	34.2	
COC(=O)C1=C(C)NC(C)=C(C(=O)OCC(C)C)C1c1csc(-c2ccc(Cl)cc2)n1 (centres undefined)	46.9				
CCOC(=O)C1=C(C)NC(C)=C(C(=O)OCC(C)C)C1c1csc(-c2ccc(Cl)cc2)n1 (centres undefined)	15.4				
COC(=O)C1=C(C)NC(C)=C(C(=O)OC(C)(C)C)C1c1csc(-c2ccc(Cl)cc2)n1 (centres undefined)	46				
CCOC(=O)C1=C(C)NC(C)=C(C(=O)OC(C)(C)C)C1c1csc(-c2ccc(Cl)cc2)n1 (centres undefined)	91				
COC(=O)C1=C(C)NC(C)=C(C(=O)OC2CCCC2)C1c1csc(-c2ccc(Cl)cc2)n1 (centres undefined)	7.29	42.7	34.42	33.22	
CCOC(=O)C1=C(C)NC(C)=C(C(=O)OC2CCCC2)C1c1csc(-c2ccc(Cl)cc2)n1 (centres undefined)	8.38	47.8	38.8	39.6	
COC(=O)C1=C(C)NC(C)=C(C(=O)OC2CCCCC2)C1c1csc(-c2ccc(Cl)cc2)n1 (centres undefined)	71.9				
CCOC(=O)C1=C(C)NC(C)=C(C(=O)OC2CCCCC2)C1c1csc(-c2ccc(Cl)cc2)n1 (centres undefined)	100				
COC(=O)C1=C(C)NC(C)=C(C(=O)OC(C)c2ccccc2)C1c1csc(-c2ccc(Cl)cc2)n1 (centres undefined)	7.62	43.06	42.1	27.82	
COC(=O)C1=C(C)NC(C)=C(C(=O)OC)C1c1ccccc1[N+](=O)[O-] [NIFEDIPINE]		48.3	43.88	40.66	

Continued by falling IC50 [3], values first:

IC50 [3] [µM]	Compound	Time (Mus musculus [1]) [min]	Time (Mus musculus [2]) [min]	Time (Mus musculus [4]) [min]	further results
64.9	COC(=O)C1=C(C)NC(C)=C(C(=O)OCc2ccccc2)C1c1csc(-c2ccc(Cl)cc2)n1 (centres undefined)				
37.2	CC1=C(C(=O)OC(C)C)C(c2csc(-c3ccc(Cl)cc3)n2)C(C(=O)OC(C)C)=C(C)N1				
13.8	CCOC(=O)C1=C(C)NC(C)=C(C(=O)OC(C)c2ccccc2)C1c1csc(-c2ccc(Cl)cc2)n1 (centres undefined)				
12.1	CCOC(=O)C1=C(C)NC(C)=C(C(=O)OCCc2ccccc2)C1c1csc(-c2ccc(Cl)cc2)n1 (centres undefined)				
10.2	COC(=O)C1=C(C)NC(C)=C(C(=O)OCCc2ccccc2)C1c1csc(-c2ccc(Cl)cc2)n1 (centres undefined)				
5.92	CCCOC(=O)C1=C(C)NC(C)=C(C(=O)OC)C1c1csc(-c2ccc(Cl)cc2)n1 (centres undefined)	43.8	37.6	31.7	
4.8	CCCOC(=O)C1=C(C)NC(C)=C(C(=O)OCCC)C1c1csc(-c2ccc(Cl)cc2)n1	42.05	36.26	34.75	
4.09	CCCOC(=O)C1=C(C)NC(C)=C(C(=O)OCC)C1c1csc(-c2ccc(Cl)cc2)n1 (centres undefined)				Time (Mus musculus [8]): 37.07 min; Time (Mus musculus [9]): 42.32 min; Time (Mus musculus [10]): 34.5 min
3.29	CCOC(=O)C1=C(C)NC(C)=C(C(=O)OCc2ccccc2)C1c1csc(-c2ccc(Cl)cc2)n1 (centres undefined)				Time (Mus musculus [8]): 37.82 min; Time (Mus musculus [9]): 39.6 min; Time (Mus musculus [10]): 33.87 min
